Measured values from US20060019971A1, “Treatment of cardiovascular disease with inhibitors of p38 kinase” (priority 2003, published 2006).

How the values were obtained:
IL-6 mRNA in HPBMCs = experiment: IL-6 gene expression in HPBMCs, real-time PCR; type: cell-based, human; settings: 1 μM SD, 6 hours
Procedure: FIG. 2(a) illustrates both the effect of CRP on IL-6 secretion from HPBMCs and its modulation by a p38 inhibitor. 8×10^5 HPBMCs were plated in 96-well. After 1 hour medium was removed and cells were incubated with or without 10 μg/ml of purified human CRP in serum-free RPMI 1640. In parallel experiments cells were treated with 10% FCS together with the CRP treatment. For the p38 antagonism, the p38 inhibitor was added to a final concentration of 1 μM in the parallel treatment. After 6 hours the conditioned medium was collected and IL-6 and IL-8 levels were determined by ELISA. FIG. 2(b) illustrates the effects of p38 inhibitor concentration on CRP induced IL-6 secretion from HPBMCs. 3×10^5 HPBMCs were plated in 96-well. After 1 hour medium was removed and cells were incubated with 10 μg/ml of purified human CRP plus 10% FCS in the presence of varying concentrations of p38 inhibitor. After 4 hours conditioned medium were collected and IL-6 level was determined by ELISA. […] After 6 hours RNA was extracted from the cells and IL-6 expression level was determined by real-time PCR as described in Experimental section. […]
RNA was extracted from the cells using Qiagen RNA extraction kit according to the manufacturer's instruction. The expression of pro-inflammatory genes IL-1β, IL-6, IL-8, TNFα, COX-2, ET-1, TF were assessed by real-time PCR. […]

[1] = test system: TNFα secretion from HPBMCs; experiment: TNFα secretion from HPBMCs, ELISA; type: cell-based, human; settings: 1 μM SD, 6 hours
Procedure: 5×10^6 HPBMCs were plated in 6-well. After 1 hour medium was removed and cells were treated with vehicle or 1μM p38 inhibitor in RPMI 1640 medium. After 1 hour cells were stimulated with 10% FCS only or 10 μg/ml CRP plus 10% FCS. After 6 hours conditioned medium was collected and IL-1b and TNFa levels were determined by ELISA. […] 5×10^6 HPBMCs were plated in 6-well. After I hour medium was removed and cells were treated with vehicle or […] p38 inhibitor in RPMI 1640 medium. After 1 hour cells were stimulated with 10% FCS only or 10 μg/ml CRP plus 10% FCS. After 2 hours RNA was extracted from the cells and TNFa (c) and IL-1b (d) expression levels were determined by real-time PCR as described in the Experimental section. […]
Conditioned media from the treated cells were collected (6 to 20 hrs), and the level of secreted interleukin 6 (IL-6), interleukin 1 beta (IL-1 β), tumor necrosis factor alpha (TNFα), and interleukin 8 (IL-8) was determined by ELISA according to the manufacturer's instruction (Biosource International, Camarillo, Calif.). […]
TNFα and IL-β are initial inflammatory cytokines produced when monocytes are activated during infalmmation. […] HPBMCs were incubated with either 10% FCS or CRP plus 10% FCS for 6 hours and secreted cytokines TNFα and IL-1β were measured by ELISA. […]

C[C@@H]1CN(Cc2ccc(F)cc2)[C@@H](C)CN1C(=O)c1cc2c(C(=O)C(=O)N(C)C)c[nH]c2cc1Cl [Compound 162]
inhibition of FCS invoked IL-6 mRNA expression (IL-6 mRNA in HPBMCs): almost completely blocked
inhibition of CRP invoked IL-6 mRNA expression (IL-6 mRNA in HPBMCs; CRP plus 10% FCS): almost completely blocked
FCS induced TNFα secretion, sensitivity to p38 inhibition ([1]; 10% FCS): sensitive
inhibition of CRP-invoked TNFα secretion ([1]; CRP plus 10% FCS): strongly inhibited
